This is an account of results in US20240175876A1, “PERIPLASMIC LIGAND TRAPPING SYSTEM” (UNIVERSITY OF MIAMI, priority 2022, published 2024).

For the test, the target named is T1, Angiotensin II Receptor Type I (AGTR1) (Homo sapiens, UniProt P30556).
T1 construct: expressed in transfected cells; host or cells: Saccharomyces cerevisiae strain DI DCyFIR P1 I (humanized Gαi)
T1 sequence (P30556 1-359): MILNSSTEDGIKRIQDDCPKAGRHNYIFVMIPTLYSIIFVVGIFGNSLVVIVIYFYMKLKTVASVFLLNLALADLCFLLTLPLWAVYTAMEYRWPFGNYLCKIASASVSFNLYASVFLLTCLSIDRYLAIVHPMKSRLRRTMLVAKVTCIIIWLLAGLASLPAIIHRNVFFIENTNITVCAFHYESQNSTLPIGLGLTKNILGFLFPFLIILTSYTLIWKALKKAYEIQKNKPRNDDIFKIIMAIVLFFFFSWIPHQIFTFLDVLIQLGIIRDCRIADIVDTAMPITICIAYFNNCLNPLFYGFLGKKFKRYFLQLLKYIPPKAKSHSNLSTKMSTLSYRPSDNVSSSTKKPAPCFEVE
The test is described as follows: AGTR1 modulation via intracellular nanobodies, galactose-induced AGT-II, mTq2 reporter in yeast. The settings on record: galactose-induced secreted ligand, Gαi strain; FIG. 5B. The test is classed as cell-based.

Regarding angiotensin II [AGT-II], the “AGTR1 activation by inducible expression of ligand” value is on record as “successfully resulted in AGTR1 activation”.
